Laboratory results as given in patent US8030443B2, “Squamous cell carcinoma antigen-derived peptide binding to HLA-A24 molecule” (Kurume University, priority 2005, dated 2011).

Tested on: peptide-specific IgG in sera of cancer patients and healthy donors
Assay: Measurement of anti-peptide IgG in plasma by LUMINEX multiplexed flow cytometric assay
Format: binding, human
Procedure, shortened: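 Plasma diluted 1/100 incubated with peptide-coupled colour-coded beads 2 h at RT, then biotinylated goat anti-human IgG (γ-chain) 1 h and streptavidin-PE 30 min; fluorescence read by multiplexed flow cytometry, >100 counted significant. Specificity checked by three rounds of absorption on corresponding versus irrelevant SCCA peptide.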

In the case of “KFMFDLFQQF (SCCA 10-19 peptide) [SCCA-derived peptide, position 10-19]”, the “Total: healthy donors with significant peptide-reactive IgG / donors tested” value (10 healthy donors, significant when fluorescence intensity exceeded 100 at 1/100 dilution) is reported as 1/10, the “Total: cancer patients with significant peptide-reactive IgG / patients tested” value (71 cancer patients, significant when fluorescence intensity exceeded 100 at 1/100 dilution) is reported as 12/71 and the Fluorescence intesity (serum of Breast Ca. patient #36, 1:100 dilution) is reported as 66. For the same sequence, the Fluorescence intesity (serum of Breast Ca. patient #37, 1:100 dilution) was 0, the Fluorescence intesity (serum of Breast Ca. patient #38, 1:100 dilution) was 27 and the Fluorescence intesity (serum of Breast Ca. patient #39, 1:100 dilution) was 38. The Fluorescence intesity (serum of Breast Ca. patient #40, 1:100 dilution) was 0, the Fluorescence intesity (serum of Breast Ca. patient #41, 1:100 dilution) was 201 and the Fluorescence intesity (serum of Breast Ca. patient #42, 1:100 dilution) was 0. For the same sequence, the Fluorescence intesity (serum of Breast Ca. patient #43, 1:100 dilution) was 44, the Fluorescence intesity (serum of Breast Ca. patient #44, 1:100 dilution) was 18 and the Fluorescence intesity (serum of Breast Ca. patient #45, 1:100 dilution) was 55. It also gave a Fluorescence intesity (serum of Colon Ca. patient #66, 1:100 dilution) of 5, a Fluorescence intesity (serum of Colon Ca. patient #67, 1:100 dilution) of 79 and a Fluorescence intesity (serum of Colon Ca. patient #68, 1:100 dilution) of 0. It also gave a Fluorescence intesity (serum of Colon Ca. patient #69, 1:100 dilution) of 2, a Fluorescence intesity (serum of Colon Ca. patient #70, 1:100 dilution) of 17 and a Fluorescence intesity (serum of Colon Ca. patient #71, 1:100 dilution) of 6. For the same sequence, the Fluorescence intesity (serum of Gastric Ca. patient #56, 1:100 dilution) was 38, the Fluorescence intesity (serum of Gastric Ca. patient #57, 1:100 dilution) was 11 and the Fluorescence intesity (serum of Gastric Ca. patient #58, 1:100 dilution) was 0. It also gave a Fluorescence intesity (serum of Gastric Ca. patient #59, 1:100 dilution) of 177, a Fluorescence intesity (serum of Gastric Ca. patient #60, 1:100 dilution) of 4 and a Fluorescence intesity (serum of Gastric Ca. patient #61, 1:100 dilution) of 81. The Fluorescence intesity (serum of Gastric Ca. patient #62, 1:100 dilution) was 0, the Fluorescence intesity (serum of Gastric Ca. patient #63, 1:100 dilution) was 0 and the Fluorescence intesity (serum of Gastric Ca. patient #64, 1:100 dilution) was 9. It also gave a Fluorescence intesity (serum of Gastric Ca. patient #65, 1:100 dilution) of 0, a Fluorescence intesity (serum of Healthy Donor #1, 1:100 dilution) of 0 and a Fluorescence intesity (serum of Healthy Donor #2, 1:100 dilution) of 68. For the same sequence, the Fluorescence intesity (serum of Healthy Donor #3, 1:100 dilution) was 0, the Fluorescence intesity (serum of Healthy Donor #4, 1:100 dilution) was 0 and the Fluorescence intesity (serum of Healthy Donor #5, 1:100 dilution) was 8. For the same sequence, the Fluorescence intesity (serum of Healthy Donor #6, 1:100 dilution) was 0, the Fluorescence intesity (serum of Healthy Donor #7, 1:100 dilution) was 0 and the Fluorescence intesity (serum of Healthy Donor #8, 1:100 dilution) was 345. The Fluorescence intesity (serum of Healthy Donor #9, 1:100 dilution) was 34, the Fluorescence intesity (serum of Healthy Donor #10, 1:100 dilution) was 0 and the Fluorescence intesity (serum of Pancreas Ca. patient #46, 1:100 dilution) was 0. The Fluorescence intesity (serum of Pancreas Ca. patient #47, 1:100 dilution) was 12, the Fluorescence intesity (serum of Pancreas Ca. patient #48, 1:100 dilution) was 206 and the Fluorescence intesity (serum of Pancreas Ca. patient #49, 1:100 dilution) was 0. The Fluorescence intesity (serum of Pancreas Ca. patient #50, 1:100 dilution) was 311, the Fluorescence intesity (serum of Pancreas Ca. patient #51, 1:100 dilution) was 0 and the Fluorescence intesity (serum of Pancreas Ca. patient #52, 1:100 dilution) was 172. For the same sequence, the Fluorescence intesity (serum of Pancreas Ca. patient #53, 1:100 dilution) was 0, the Fluorescence intesity (serum of Pancreas Ca. patient #54, 1:100 dilution) was 11 and the Fluorescence intesity (serum of Pancreas Ca. patient #55, 1:100 dilution) was 0. For the same sequence, the Fluorescence intesity (serum of Uterine cervical Ca. patient #1, 1:100 dilution) was 25, the Fluorescence intesity (serum of Uterine cervical Ca. patient #2, 1:100 dilution) was 21 and the Fluorescence intesity (serum of Uterine cervical Ca. patient #3, 1:100 dilution) was 11. It also gave a Fluorescence intesity (serum of Uterine cervical Ca. patient #4, 1:100 dilution) of 5, a Fluorescence intesity (serum of Uterine cervical Ca. patient #5, 1:100 dilution) of 14 and a Fluorescence intesity (serum of Uterine cervical Ca. patient #6, 1:100 dilution) of 786. For the same sequence, the Fluorescence intesity (serum of Uterine cervical Ca. patient #7, 1:100 dilution) was 14, the Fluorescence intesity (serum of Uterine cervical Ca. patient #8, 1:100 dilution) was 38 and the Fluorescence intesity (serum of Uterine cervical Ca. patient #9, 1:100 dilution) was 76. It also gave a Fluorescence intesity (serum of Uterine cervical Ca. patient #10, 1:100 dilution) of 16, a Fluorescence intesity (serum of Uterine cervical Ca. patient #11, 1:100 dilution) of 21 and a Fluorescence intesity (serum of Uterine cervical Ca. patient #12, 1:100 dilution) of 41. The Fluorescence intesity (serum of Uterine cervical Ca. patient #13, 1:100 dilution) was 22, the Fluorescence intesity (serum of Uterine cervical Ca. patient #14, 1:100 dilution) was 22 and the Fluorescence intesity (serum of Uterine cervical Ca. patient #15, 1:100 dilution) was 154. The Fluorescence intesity (serum of Uterine cervical Ca. patient #16, 1:100 dilution) was 225, the Fluorescence intesity (serum of Uterine cervical Ca. patient #17, 1:100 dilution) was 50 and the Fluorescence intesity (serum of Uterine cervical Ca. patient #18, 1:100 dilution) was 45. It also gave a Fluorescence intesity (serum of Uterine cervical Ca. patient #19, 1:100 dilution) of 67, a Fluorescence intesity (serum of Uterine cervical Ca. patient #20, 1:100 dilution) of 107 and a Fluorescence intesity (serum of Uterine cervical Ca. patient #21, 1:100 dilution) of 22. It also gave a Fluorescence intesity (serum of Uterine cervical Ca. patient #22, 1:100 dilution) of 19, a Fluorescence intesity (serum of Uterine cervical Ca. patient #23, 1:100 dilution) of 78 and a Fluorescence intesity (serum of Uterine cervical Ca. patient #24, 1:100 dilution) of 2277. For the same sequence, the Fluorescence intesity (serum of Uterine cervical Ca. patient #25, 1:100 dilution) was 19, the Fluorescence intesity (serum of Uterine cervical Ca. patient #26, 1:100 dilution) was 88 and the Fluorescence intesity (serum of Uterine cervical Ca. patient #27, 1:100 dilution) was 33. For the same sequence, the Fluorescence intesity (serum of Uterine cervical Ca. patient #28, 1:100 dilution) was 228, the Fluorescence intesity (serum of Uterine cervical Ca. patient #29, 1:100 dilution) was 15 and the Fluorescence intesity (serum of Uterine cervical Ca. patient #30, 1:100 dilution) was 44. The Fluorescence intesity (serum of Uterine cervical Ca. patient #31, 1:100 dilution) was 107, the Fluorescence intesity (serum of Uterine cervical Ca. patient #32, 1:100 dilution) was 21 and the Fluorescence intesity (serum of Uterine cervical Ca. patient #33, 1:100 dilution) was 92. For the same sequence, the Fluorescence intesity (serum of Uterine cervical Ca. patient #34, 1:100 dilution) was 17 and the Fluorescence intesity (serum of Uterine cervical Ca. patient #35, 1:100 dilution) was 17.
